In brackets after ≈: the same amount, converted by molar mass. Entries after “also recorded” stand apart in the source; their conditions may differ. Where two headings read alike, the source gives them in different places.
Legend:
Corynebacterium = test: MIC test, agar plate dilution method; type: cell-based, Corynebacterium striatum
Method: (§1) In accordance with the agar plate dilution method of the Japanese Society of Chemotherapy (1981), the minimum inhibitory concentration of a sample was determined.
(§2) Agar plates containing a sample at predetermined concentrations were smeared with a test bacterial suspension and were incubated, and then the minimum concentration at which bacterial growth was inhibited was determined as the minimum inhibitory concentration.
(§3) A 10-fold diluted solution of a sample was prepared with purified water and was added to an agar medium at a 1/10 volume.
(§4) From the upper limit concentration, the concentration was determined by serial 2-fold dilution to about 100 μg/ml.
(§5) (1) A 70% solution was prepared (14 g was diluted in a 20-ml measuring flask).
(§6) (2) The 70% solution was diluted by 2-fold dilution. Seven to eight steps.
(§7) (3) A 1/9 volume of each solution was added to an agar medium, and the mixture was poured in a petri dish and solidified (the sample concentration was 7% or more in the agar).
(§8) A liquid culture medium containing bacteria was incubated for 16 to 20 hours, and a prepared culture medium having a bacterial concentration of about 10^6/ml was used.

Enterococci = test: MIC test, agar plate dilution method; type: cell-based, Enterococcus faecalis
Method: as §1, §2, §3, §4, §5, §6, §7, §8

E. coli = test: MIC test, agar plate dilution method; type: cell-based, Escherichia coli
Method: as §1, §2, §3, §4, §5, §6, §7, §8

Staphylococcus aureus = test: MIC test, agar plate dilution method; type: cell-based, Staphylococcus aureus subsp. (MSSA)
Method: as §1, §2, §3, §4, §5, §6, §7, §8

MRSA = test: MIC test, agar plate dilution method; type: cell-based, Staphylococcus aureus (MRSA)
Method: as §1, §2, §3, §4, §5, §6, §7, §8

Pseudomonas aeruginosa = test: MIC test, agar plate dilution method; type: cell-based
Method: as §1, §2, §3, §4, §5, §6, §7, §8

[1] = system: Staphylococcus epidermidis; test: MIC test, agar plate dilution method; type: cell-based
Method: as §1, §2, §3, §4, §5, §6, §7, §8

male SD rats = test: Blood glucose level after intraperitoneal administration of D-allulose dialysate, normal rats, Test Example 3; type: in vivo, rat; conditions: PDF-based, vs control group
Source text: The number of dialysis patients due to end-stage renal failure has been increasing; diabetic nephropathy is the main basic disease of end-stage renal failure; peritoneal dialysis patients can work during the day and has high QOL; peritoneal dialysis uses an osmotic pressure difference by glucose to remove water and toxins; and glucose in a peritoneal dialysate is absorbed through the peritoneum into the body to increase the blood glucose level, and this may worsen prognosis of a dialysis patient with diabetes. Considering the above circumstances, Kagawa University is only the organization capable of producing all rare sugars in the world and can research the rare sugar optimum for an intended dialysate.
The test example of D-allulose includes a substitution example and an addition example. In the substitution example, D-allose in FIG. 7 was substituted with D-allulose.
To male SD rats, a control solution as a solution in which a peritoneal dialysis fluid (PDF) was mixed with glucose, a 10% substitution solution as a solution in which 10% (by weight) of glucose to be mixed was substituted with D-allulose, or a 10% load solution as a solution in which D-allulose was added to the control solution in an amount corresponding to 10% by weight of glucose was intraperitoneally administered in the same volume, and blood glucose levels were determined over time.

test bacteria = test: MIC test, summary statements for the test bacteria as a whole; type: cell-based
Method: as §1, §2
Drug concentration 128 μg/ml grown bacteria A+ B− C−
Drug concentration 64 μg/ml grown bacteria A+ B+ C−
Drug concentration 32 μg/ml grown bacteria A+ B+ C+

normal rats (SD rats) [2] = test: Blood glucose level after intraperitoneal administration of peritoneal dialysate, normal rat models, Test Example 1; type: in vivo
Method: As shown in the protocol in FIG. 1, normal rats (6-week-old male SD rats, a weight of 155 to 170 g/body) were fasted for 24 hours, then the weights and fasting blood glucose levels were determined, and the rats were randomly separated into four groups.
As the administration solutions, a solution containing only glucose at a concentration of 4%, a solution having a sugar concentration of 4% in which D-allose was contained at 5% and glucose was contained at 95%, a solution having a sugar concentration of 4% in which D-allose was contained at 10% and glucose was contained at 90%, and a solution having a sugar concentration of 4% in which D-allose was contained at 25% were prepared, and each osmotic pressure of the four solutions was determined.
(§9) For the normal rats, blood samples were collected from the tail veins, and the blood glucose (blood sugar) levels were determined by using a commercially available blood glucose meter.
The results were subjected to Tukey-Kramer test by using an analysis software, JMP, and no significant difference was observed.

[3] = system: diabetic model rats (SDT fatty rats); test: Blood glucose level after intraperitoneal administration of peritoneal dialysate, diabetic model rats, Test Example 1; type: in vivo, rat
Method: (§10) As shown in the protocol in FIG. 4, 12- to 13-week-old male SDT fatty rats (a weight of 360 to 460 g) as diabetic model rats were fasted for 24 hours, then the weights and fasting blood glucose levels were determined, and the rats were randomly separated into two groups. As the administration solutions, a solution containing only glucose at a concentration of 4%, a solution having a sugar concentration of 4% in which D-allose was contained at 10% and glucose was contained at 90% were prepared, and each osmotic pressure of the two solutions was determined.
(§11) The diabetic model rats had more weights and higher fasting blood glucose levels than those of the normal rats. Blood samples were difficult to collect from the tails of the diabetic rats and thus were collected from the jugular vein, and blood glucose levels were determined by using the same blood glucose meter as above. The model rats had diabetes, and thus the blood glucose level increase was slow as compared with the normal rats.

normal rats (SD rats) [4] = test: Blood glucose level after intraperitoneal administration of PDF-based dialysate, normal rat models, Test Example 2; type: in vivo; conditions: PDF-based solutions
Method: Next, a peritoneal dialysis fluid (PDF) was prepared, solutions containing glucose in a constant total amount of (0.432 g) were prepared, and D-allose was added to the solution at a predetermined ratio to give the following two peritoneal dialysates having a sugar concentration of 4% by weight and an osmotic pressure of 500 mOsm/L.
as §10, with “7, normal rats (6-week-old” for “4, 12- to 13-week-old”, “SD rats, a” for “SDT fatty rats (a”, “155” for “360”, “175 g/body)” for “460 g) as diabetic model rats”, “4% and” for “4%,”, “pressure” for “pressure of the two solutions”
as §9
FIG. 8 show the test result of blood glucose level of the two groups of a group of the solution containing only glucose at a concentration of 4% and a group of the solution having a sugar concentration of 4% in which D-allose was contained at 10% and glucose was contained at 90%.

[5] = system: diabetic model rats (SDT fatty rats); test: Blood glucose level after intraperitoneal administration of PDF-based dialysate, diabetic model rats, Test Example 2; type: in vivo, rat; conditions: PDF-based solutions
Method: As shown in the protocol in FIG. 9, 35- to 42-week-old male SDT fatty rats (a weight of 380 to 490 g) as diabetic model rats were fasted for 24 hours, then the weights and fasting blood glucose levels were determined, and the rats were randomly separated into two groups. As the administration solutions, the original solution was changed to PDF, and a solution containing only glucose as the sugar at a concentration of 4%, a solution having a sugar concentration of 4% in which D-allose was contained at 10% and glucose was contained at 90% were prepared, and each osmotic pressure of the two solutions was determined.
FIG. 10 show the test result of blood glucose level of the two groups of a group of the solution containing only glucose at a concentration of 4% and a group of the solution having a sugar concentration of 4% in which D-allose was contained at 10% and glucose was contained at 90%.
as §11, with “vein, and the blood glucose” for “vein, and blood glucose”

[6] = Enterococcus faecalis, read-out: MIC
[7] = Escherichia coli, read-out: MIC
[8] = Staphylococcus aureus, read-out: MIC
[9] = summary of results, drug concentration 128, 64, 32 μg/ml, bacterium not named
[10] = intraperitoneal, 0, 2, 4, and 6 hours

Row | Structure (SMILES) | MIC (Corynebacterium; read-out: MIC) | MIC (Enterococci; [6]) | MIC (E. coli; [7]) | MIC (Staphylococcus aureus; read-out: MIC) | MIC (MRSA; [8]) | MIC (Pseudomonas aeruginosa; read-out: MIC) | MIC ([1]; read-out: MIC) | MIC (Corynebacterium) | MIC (Enterococci) | MIC (E. coli) | MIC (Staphylococcus aureus) | MIC (MRSA) | MIC (Pseudomonas aeruginosa) | MIC [1] | MIC (test bacteria; [9]) | other results
1 | O=C[C@H](O)[C@@H](O)[C@H](O)[C@H](O)CO [Sample 1), D-glucose] | > 70 mg/mL | > 70 mg/mL | > 70 mg/mL | > 70 mg/mL | > 70 mg/mL | > 70 mg/mL | > 70 mg/mL | – | – | – | – | – | – | – | – | –
2 | O=C(CO)[C@@H](O)[C@H](O)[C@H](O)CO [Sample 2), D-Fructose] | > 70 mg/mL | > 70 mg/mL | > 70 mg/mL | > 70 mg/mL | > 70 mg/mL | > 70 mg/mL | > 70 mg/mL | – | – | – | – | – | – | – | – | –
3 | O=C(CO)[C@H](O)[C@H](O)[C@H](O)CO [Sample 3), D-allulose] | – | – | – | – | – | – | – | >70 mg/mL | >70 mg/mL | >70 mg/mL | >70 mg/mL | >70 mg/mL | >70 mg/mL | >70 mg/mL | > 0.128 mg/mL | blood glucose level increase (BS) (male SD rats): significantly suppressed
4 | O=C(CO)[C@@H](O)[C@@H](O)[C@@H](O)CO [Sample 4), L-allulose] | – | – | – | – | – | – | – | >70 mg/mL | >70 mg/mL | >70 mg/mL | >70 mg/mL | >70 mg/mL | >70 mg/mL | >70 mg/mL | 0.128 mg/mL (≈ 0.71 mM) | –
5 | O=C[C@H](O)[C@H](O)[C@H](O)[C@H](O)CO [Sample 5), D-allose] | > 70 mg/mL | > 70 mg/mL | > 70 mg/mL | > 70 mg/mL | > 70 mg/mL | > 70 mg/mL | 70 mg/mL (≈ 389 mM) | – | – | – | – | – | – | – | – | AUC of blood glucose level (normal rats (SD rats) [2]; Tukey-Kramer test): significant declining trend; blood glucose level increase (time course) (normal rats (SD rats) [2]; fasted 24 hours, vs glucose-only solution): increase suppressive effect with a significant difference; also recorded: suppressed; blood glucose level increase [3, 10]: suppressed; AUC of blood glucose level ([3]; intraperitoneal, t-test): suppressive effect on the blood glucose level increase with a significant difference; blood glucose level increase (normal rats (SD rats) [4]): suppressed; blood glucose level increase [5, 10]: suppressed; AUC of blood glucose level ([5]; t-test): suppressive effect on the blood glucose level increase with a significant difference; MIC (test bacteria): 0.064 mg/mL (≈ 0.355 mM)
